In US8372951B2, “Cell penetrating peptides for intracellular delivery” (National Tsing Hua University, priority 2010, dated 2013):
Entries after “also recorded” stand apart in the source; their conditions may differ. Residues, ends and D or L forms follow the SMILES beside them. No end group written: not given here. *: point of attachment. FITC = O=C1OC2(c3ccc(O)cc3Oc3cc(O)ccc32)c2ccc(NC(=S)*)cc21

How the values were obtained:
Format in all cases: cell-based
Beas-2B cells [1] = assay: Confocal microscopy of cellular uptake and intracellular distribution; conditions: for entry into Beas-2B cells (minimal length requirement): 5 μM FITC-labeled peptide, 30 min
Description: FIG. 3 illustrates intracellular distribution of cell-penetrating ECP(32-41). Beas-2B cells were incubated with 5 μM FITC-ECP(32-41) at 37° C. for 5 or 60 min. After wash with 1 ml PBS buffer twice, the cellular uptake was analyzed by confocal laser scanning microscopy. Magnification ford: 63×. Scale bar: 50
FIG. 4 illustrates minimal length requirement of cell penetration peptide. Beas-2B cells were incubated with 5 μM FITC-ECP(32-41), FITC-ECP(32-41)D1, and FITC-ECP(32-41)D2 separately at 37° C. for 30 min. After wash with 1 ml PBS buffer twice, the cellular uptake was analyzed by confocal laser scanning microscopy. Magnification fold: 40×. Scale bar: 50
Cells (1.0×10^4 cells/well) were plated on 18-mm glass-bottomed dishes (Marienfeld, Germany) and cultured in medium containing 10% heat-inactivated fetal bovine serum for 24 h. After complete adhesion, the cell culture medium was removed, and then incubated at 37° C. in fresh medium containing the fluorescence-labeled peptides. The cells were washed with PBS, then fixed by 2% (w/v) paraformaldehyde (PFA) in PBS for 15 min, and 50 mM ammonium chloride in PBS was added to quench with fluoresce from PFA. Distribution of the fluorescence-labeled peptides in the cells was analyzed using a confocal scanning laser microscope (Zeiss).

Beas-2B cells [2] = assay: Flow cytometry of cellular uptake of fluorescence-labeled peptides/proteins; conditions: 37° C., 30 min; for cellular uptake of peptide cargo: 5 μM
Description: FIG. 2 illustrates cellular uptake of ECP(32-41). Beas-2B cells were incubated with 20 μM FITC (control) or FITC-ECP(32-41) at 37° C. for 30 min. After treatment, the cells were washed with 500 μl phosphate buffered saline (PBS) and treated with trypsin at 37° C. for 10 min to remove adherent extracellular peptides. The cells were resuspended in 500 μl PBS and analyzed by flow cytometry. The cellular uptake activity was expressed as mean fluorescence intensity (MFI) using FACScalibur (BD Biosciences, Franklin Lakes, N.J.) flow cytometer (FACS). The data represented the means of triplicate incubations.
FIG. 5 illustrates in vitro delivery of peptide. Beas-2B cells were incubated with 5 μM FITC (control), FITC-Dp2 or FITC-Dp2-ECP(32-41) at 37° C. for 1 h. After treatment, cells were washed with 500 μl PBS and treated with trypsin at 37° C. for 10 min to remove adherent extracellular peptides. The cells were resuspended in 500 μl PBS and analyzed by flow cytometry. The cellular uptake activity was expressed as mean fluorescence intensity (MFI) using FACScalibur (BD Biosciences, Franklin Lakes, N.J.) flow cytometer (FACS). The data represented the means of triplicate incubations.
FIG. 6 illustrates in vitro delivery of protein. […] The cells were resuspended in 500 μl PBS and analyzed by flow cytometry. The cellular uptake activity was expressed as mean fluorescence intensity (MFI) using FACScalibur (BD Biosciences, Franklin Lakes, N.J.) flow cytometer (FACS). […]
Cells (2.0×10^5 cells/well) were plated into a 6-well microplate and cultured for 24 h in RPMI 1640 medium containing 10% heat-inactivated bovine serum (Beas-2B). After complete adhesion, the cells were incubated at 37° C. with fluorescence-labeled peptides dissolved in fresh serum-containing medium prior to washing with PBS. […] The washing cycle was repeated again and the cells were suspended in PBS and subjected to fluorescence analysis on a FACScalibur (BD Biosciences, Franklin Lakes, N.J.) flow cytometer (FACS) using 488-nm laser excitation and a 515-545-nm emission filter. […]

Beas-2B cells [3] = assay: MTT cell viability assay; conditions: for cytotoxicity / cell death: Beas-2B cells, 24 h, MTT
Description: (§1) FIG. 7 illustrates in vitro delivery of peptidomimetic drug. (A). Cell viability assay. Beas-2B cells were incubated with 50 μM (KLAKLAK)2-ECP(32-41), ECP(32-41), or (KLAKLAK)2, at 37° C. for 24 h. Effects of (KLAKLAK)2-ECP(32-41) on the cell viability of Beas-2B, A549 and CHO-K1 cells (B), as well as Caco-2 and AGS cells (C). Cell viability in each group was determined by MTT assay and each experiment was performed in triplicate.
(§2) The cytotoxic effect of peptides on the cell growth were determined by a colorimetric assay using 3-(4,5-dimethylthiazol-2-yl)-2,5-diphenyltetrazolium bromide (MTT) (US Biological, Marblehead, Mass.). Cells were plated in a 96-well plate (1.0×10^4 cells/well) and incubated at 37° C. overnight. Each sample was incubated with the indicated concentration (1-100 μM) of peptide. Twenty-four hours after treatment with the indicated peptide, MTT was added, and cell growth was monitored at A570 to measure the mitochondrial-dependent formation of a colored product.

AGS = assay: MTT cell viability assay; conditions: 24 h
Description: as §1, §2

A549 = assay: MTT cell viability assay; conditions: A549, 24 h
Description: as §1, §2

Caco-2 = assay: MTT cell viability assay; conditions: Caco-2, 24 h
Description: as §1, §2

CHO-K1 = assay: MTT cell viability assay; conditions: CHO-K1, 24 h
Description: as §1, §2

In the case of “FITC-ECP(32-41): fluorochrome-tagged peptide, FITC-labeled ECP(32-41) (SEQ ID NO: 1) ({FITC}-NYRWRCKNQN)”, the “fluorescence signal inside the cells” value (Beas-2B cells [1]; 5 μM, 5 min) was “a clear fluorescence signal inside the cells”, the “fluorescence signal inside the cells” value (Beas-2B cells [1]; 5 μM, up to 60 min) was “Stronger signal” and the “cellular uptake (fluorescent signal shift)” value (Beas-2B cells [2]; 20 μM, trypsinized) was “significant uptake”.

With “Dp2-ECP(32-41): recombinant Dp2 peptide fused with ECP(32-41), SEQ ID NO: 5 (IIHRGKPFQLEAVNYRWRCKNQN; Dp2-ECP(32-41))” the “cellular uptake of peptide cargo” value (Beas-2B cells [2]) was “able to enter the cells”.

For “ECP(32-41)D2: C-terminally truncated ECP(32-41) peptide, SEQ ID NO: 3 (NYRWRCKN; ECP(32-41)D2)”, the “entry into Beas-2B cells (minimal length requirement)” value (“entry into Beas-2B cells” below) (Beas-2B cells [1]; 37° C.) was “could not”.

In the case of `CC(C)C[C@H](NC(=O)[C@H](CCCCN)NC(=O)[C@H](C)NC(=O)[C@H](CC(C)C)NC(=O)[C@H](CCCCN)NC(=S)Nc1ccc2c(c1)C(=O)OC21c2ccc(O)cc2Oc2cc(O)ccc21)C(=O)N[C@@H](C)C(=O)N[C@@H](CCCCN)C(=O)N[C@@H](CCCCN)C(=O)N[C@@H](CC(C)C)C(=O)N[C@@H](C)C(=O)N[C@@H](CCCCN)C(=O)N[C@@H](CC(C)C)C(=O)N[C@@H](C)C(=O)N[C@@H](CCCCN)C(=O)N[C@@H](CC(N)=O)C(=O)N[C@@H](Cc1ccc(O)cc1)C(=O)N[C@@H](CCCNC(=N)N)C(=O)N[C@@H](Cc1c[nH]c2ccccc12)C(=O)N[C@@H](CCCNC(=N)N)C(=O)N[C@@H](CS)C(=O)N[C@@H](CCCCN)C(=O)N[C@@H](CC(N)=O)C(=O)N[C@@H](CCC(N)=O)C(=O)N[C@@H](CC(N)=O)C(=O)O` [(KLAKLAK)2-ECP(32-41)] ({FITC}-KLAKLAKKLAKLAKNYRWRCKNQN-OH; N-terminus and C-terminus assumed), the “cytotoxicity / cell death” value (Beas-2B cells [3]; listed as FITC-(KLAKLAK)2-ECP(32-41)) was “induce markedly cell death; also recorded: strong cytotoxicity”, the “cytotoxicity (cell viability)” value (AGS) was “strong cytotoxicity” and the “cytotoxicity (cell viability)” value (A549) was “strong cytotoxicity”. For the same compound, the “cytotoxicity (cell viability)” value (Caco-2) was “strong cytotoxicity” and the “cytotoxicity (cell viability)” value (CHO-K1) was “strong cytotoxicity”.

For “(KLAKLAK)2: previously reported proapoptotic domain, peptidomimetic, SEQ ID NO: 6 (KLAKLAKKLAKLAK; (KLAKLAK)2) [reference compound]”, the cell-penetrating activity (Beas-2B cells [3]; stated with the Beas-2B viability results (FIG. 7A)) was “lacking”.

In the case of “ECP(32-41) D1: C-terminally truncated ECP(32-41) peptide, SEQ ID NO: 2 (NYRWRCKNQ; ECP(32-41)D1)”, the “entry into Beas-2B cells” value (Beas-2B cells [1]; 37° C.) was “entered Beas-2B cells”.

In the case of “ECP(32-41): 10 amino acid cell penetrating peptide from eosinophil cationic protein residues 32-41, SEQ ID NO: 1 (NYRWRCKNQN; ECP(32-41))”, the “cytotoxicity / cell death” value (Beas-2B cells [3]) was “lacking”, the “entry into Beas-2B cells” value (Beas-2B cells [1]; 37° C.) was “entered Beas-2B cells” and the intracellular localization (Beas-2B cells [1]; 5 μM, 37° C.) was “both cytoplasm and nucleus”.

For “FITC-Dp2: Dp2 peptide (SEQ ID NO: 4), the group 2 allergen of Dermatophagoides pteronyssinus, FITC-labeled (IIHRGKPFQLEAV; not fully specified (N-terminus); also: FITC label) [reference compound]”, the “cellular uptake of peptide cargo” value (Beas-2B cells [2]) was “only Dp2-ECP(32-41) was able to enter the cells”.
